Target: F381L/V461A KIVD (Lactococcus lactis, UniProt A0A0B8QZ66, form not given/V461A)
Experiment: coupled enzymatic assay of KIVD decarboxylation activity
Assay type: biochemical
Conditions: substrate of V461A/F381L KIVD, 30° C., pH 6.8
Source text: Protein Expression and Purification. Both gene fragments encoding wild type and F381L/V461A KIVD were amplified from plasmid pZE_LeuABCDKA6 using primers hiskivd_tevfwd and hiskivd_bamrev. After digestion with BamHI, the gene fragments were inserted into expression plasmid pQE9 (Qiagen) to yield pQE_hiskivd_wt and pQE_hiskivd_FL. The ADH6 gene fragment was amplified from yeast genomic DNA using primers hisadh_tevfwd and hisadh_bamrev, digested with BamHI and inserted into pQE9 to generate pQE_hisadh6. Similarly, genes encoding G462D and G462D/S139G LeuA were amplified from plasmid pZE_LeuABCDKA6 using primers hisleua_tevfwd and hisleua_bamrev. After digestion with BamHI, the PCR products were ligated into pQE9 to create pQE_hisleua_GD and pQE_hisleua_GS. […]
Enzymatic Assay of KIVD. […] Inc. Protein concentration was determined by measuring UV absorbance at 280 nm. The decarboxylation activity of KIVD was measured at 30° C. using a coupled enzymatic assay method. […] The reactions were started by adding 2 μl KIVD (final concentration: for KIV, 20 nM wt KIVD, 200 nM F381L/V461A KIVD; for KHV, 50 nM both), and the consumption of NADPH was monitored at 340 nm (extinction coefficient, 6.22 mM^−1 cm^−1). Kinetic parameters (kcat and Km) were determined by fitting initial velocity data to the Michaelis-Menten equation using Origin.

Row | SMILES | Km [mM]
1 | CC[C@H](C)CC(=O)C(=O)O [(S)-2-keto-4-methylhexanoate] | 0.22
2 | CC(C)C(=O)C(=O)O [2-Ketoisovalerate] | 7.7
